Laboratory results: patent US20240424010A1, “NICOTINAMIDE RIBOSIDE TRIOLEATES CHLORIDE, COMPOSITIONS CONTAINING THIS COMPOUND, AND METHODS OF MAKING AND USING THIS COMPOUND” (SOCIETE DES PRODUITS NESTLE S.A., priority 2021, published 2024)
Entries after “also recorded” stand apart in the source; their conditions may differ.

What was measured:
Type in all cases: physicochemical
[1] = Hydrolysis stability of NRTOCl and NRCl oil-in-water emulsions and NRCl in water at 35° C. for 26 days; conditions: 35° C., 26 days; for times more stable than NR(Cl) in emulsion: canola oil-in-water emulsion with sodium caseinate
Protocol: The emulsion was prepared using 480 mg of oil stock containing 15 wt. % NRTOCl in canola oil and an aqueous phase (14.52 g) of Na-caseinate (2 wt. %), KCl (0.3 wt. %), NaCl (0.1 wt. %), CaCl2 (0.2 wt. %) and NaN3 (0.01 wt. %).
The emulsion was-prepared using 480 mg of oil stock containing 15 wt. % NRTOCl in canola oil and 0.025 g of lecithin. The aqueous phase (14.5 g) contained Na-caseinate (2 wt. %), KC (0.3 wt. %), NaCl (0.1 wt. %), CaCl2 (0.2 wt. %) and NaN3 (0.01 wt. %).
The emulsion was-prepared using 480 mg of oil stock containing 15 wt. % NRTOCl in canola oil and an aqueous phase (14.52 g) of polysorbate 80 (Tween 80) (2 wt. %).
The emulsion was prepared using around 480 mg of canola oil in an aqueous phase (14.52 g) of NRCl (19 mg), Na-caseinate (2 wt. %), KCl (0.3 wt. %), NaCl (0.1 wt. %), CaCl2 (0.2 wt. %) and NaN3 (0.01 wt. %).
After each specific time of stability for NRTOCl and NRCl emulsions, 1.5 mL of each emulsion was centrifuged (14,000 rpm) for 20 minutes at room temperature.
Since NRTOCl is a very hydrophobic compound, to evaluate its stability in oil phase, an emulsion system was used to study the stability of NRTOCl as a function of time. For this purpose, a 15% w/w solution of NRTOCl in canola oil was used for making different emulsions with Na-caseinate, Tween 80 and lecithin as the emulsifiers (2 wt. %) at room temperature.
When Na-caseinate was used as an emulsifier, the aqueous phase must be a solution of NaCl (0.1 wt. %), CaCl2 (0.2 wt. %) and KCl (0.3 wt. %) because caseinate anion with minus charge and NRTO with positive charge immediately aggregated in DI water. The total oil phase in these emulsions were 3.2 wt. %, and the concentration of NRTOCl in total volume of each emulsion (15 mL) was 4.4 mM. In the emulsions that used Na-caseinate as an emulsifier, NaN3 (0.01 wt. %) was added to prevent the growth of bacteria. When the NRTOCl emulsion was made by 2 wt. % Na-caseinate, its average size and zeta potential in this emulsion (Cas emulsion) were 1020 nm and −14.4 mV respectively.
After making NRTOCl emulsions, a NRCl in canola oil-in-water emulsion was attempted as a control experiment using 3.2% canola oil. The aqueous phase was a solution of Na-caseinate (2 wt. %), NaCl (0.1 wt. %), CaCl2 (0.2 wt. %), KCl (0.3 wt. %) and NaN3 (0.01 wt. %). The concentration of NRCl in total volume (15 mL) of this emulsion was 4.4 mM. Moreover, 15 mL of NRCl solution in DI water was prepared with 4.4 mM concentration as the other control experiment. After preparing three NRTOCl emulsions and two control experiment samples, hydrolysis stability of each sample was studied at 35° C. for 26 days (FIG. 14). The rate of degradation was measured by determination of the released nicotinamide from each sample. […]

[2] = Stability of NRTOCl and NRCl in DI water at 35° C. for 28 days (released nicotinamide by HPLC)
Protocol: Although NRTOCl is a quaternary ammonium salt, it was not dissolved in water due to the existence of three groups of oleate fatty ester in its structure. Therefore, for the stability study of NRTOCl, this compound was dispersed in DI water using 1% ethanol as a cosolvent. For this purpose, 15 mg of NRTOCl was dissolved in 0.15 ml of ethanol (1%) and then 14.85 ml of DI water was added to the mixture and gently shaken. […] Although the average size of NRTOCl in this sample was 192 nm, the images of TEM disclosed smaller particles with around 50 nm and oval and spherical shapes with aspect ratio close to unity (FIGS. 10A-10C). In the nanoparticles, the NRTOCl structures are stacked on top of each other layer-by-layer. The highly positive charge of NRTO makes the nanoparticles stable in the aqueous phase. After dispersion of NRTOCl in DI water, NRCl was dissolved in DI water, and the stability of these samples were studied at 35° C. for 28 days (FIG. 11). The concentration of each sample was 1000 ppm. As during the hydrolysis reaction of NRTO and NR, both of these compounds released nicotinamide (FIG. 12), and by measuring the released amount of nicotinamide in each sample with HPLC, the remaining amounts of NRTO and NR in each sample were calculated. During this study, any release of NR from NRTO sample was not detected. It signifies that the heavy ester groups in NRTO sample are not hydrolyzed during the time of stability study. Because this study was performed in DI water and the conditions were mild, the NRTO was hydrolyzed from its N-glycoside bond.

[3] = Solubility of NRTOCl in water and in canola, corn and MCT oil
Protocol: 2154 mg of canola oil was added to a 15 mL falcon tube containing 380 mg of NRTOCl. Then, the tube was placed in a water bath and was shaken at around 35° C. until NRTOCl was completely dissolved in canola oil. After dissolving NRTOCl in canola oil, the sample was kept at room temperature for the next studies. […] Although NRTOCl is a quaternary ammonium salt, it was not dissolved in water due to the existence of three groups of oleate fatty ester in its structure. Therefore, for the stability study of NRTOCl, this compound was dispersed in DI water using 1% ethanol as a cosolvent. For this purpose, 15 mg of NRTOCl was dissolved in 0.15 ml of ethanol (1%) and then 14.85 ml of DI water was added to the mixture and gently shaken. […] Although the average size of NRTOCl in this sample was 192 nm, the images of TEM disclosed smaller particles with around 50 nm and oval and spherical shapes with aspect ratio close to unity (FIGS. 10A-10C). In the nanoparticles, the NRTOCl structures are stacked on top of each other layer-by-layer. The highly positive charge of NRTO makes the nanoparticles stable in the aqueous phase.

For `CCCCCCCC/C=C\CCCCCCCC(=O)OC[C@H]1O[C@@H]([n+]2cccc(C(N)=O)c2)[C@H](OC(=O)CCCCCCC/C=C\CCCCCCCC)[C@@H]1OC(=O)CCCCCCC/C=C\CCCCCCCC.[Cl-]` [NRTOCl, nicotinamide riboside trioleates chloride], the “times more stable than NR(Cl) in emulsion” value [1] was 213 times, the “times more stable than NR(Cl) in emulsion” value ([1]; listed as NRTO) was “about 213 times” and the “remaining amount after 26 days in emulsion” value ([1]; canola oil-in-water emulsion, 4.4 mM) was 93.7%. The “release of NR from NRTO sample (ester hydrolysis) during stability study” value ([2]; DI water) was “not detected”, the “remaining amount after 28 days” value ([2]; DI water, 1000 ppm, 28 days) was 53.3% and the “times more stable than NRCl in water” value ([2]; 28 days) was 88 times. The “times more stable than NRCl in water” value ([2]; 28 days, listed as NRTO) was “more than 88 times”, the “appearance of 15 wt. % solution in canola oil during storage” value ([3]; 15 wt. % NRTOCl in canola oil, room temperature) was “stable and clear without any sediment” and the “solubility in canola oil” value ([3]; canola oil) was “easily dissolved”. For the same molecule, the “solubility in canola, corn and MCT oil” value ([3]; room temperature) was “easily dissolved” and the solubility in water ([3]; water) was “not soluble in water; also recorded: not dissolved; also recorded: water insoluble”.
